How the values were obtained:
velvetleaf [1] = assay: Test B pre-/postemergence herbicide test; type: in vivo, Abutilon theophrasti
Outline: (§1)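 Visual rating, 0 (no effect) to 100 (complete control), versus untreated controls after 13–15 d in greenhouse. Pre- and postemergence applications (postemergence plants 2–18 cm, 1–4 leaves); flooded paddy arm at 2-leaf stage. Compounds in non-phytotoxic solvent plus surfactant.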

rice [2] = assay: Test B pre-/postemergence herbicide test; type: in vivo, Oryza sativa; details: preemergence, 125 g ai/ha; 0 to 100 scale, 0 is no effect, 100 is complete control
Outline: as §1

wheat = assay: Test B postemergence herbicide test; type: in vivo, Triticum aestivum; design: key to Wheat plant response rating: 0 = no effect, 100 = complete control; details: scale 0 (no effect) to 100 (complete control)
Outline: (§2)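 Treated at 2-leaf (paddy) or 1–4-leaf, 2–18 cm (postemergence); greenhouse 13–15 d; visual score vs control, 0 none to 100 complete control; dash = not tested.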

large crabgrass [3] = assay: Test A pre-/postemergence herbicide test; type: in vivo, Digitaria sanguinalis; details: for Plant response rating, Crabgrass, Large: Postemergence; for Crabgrass, Large plant response rating: Preemergence
Outline: (§3)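 Visual injury scores on a 0–100 scale (100 = complete control) taken about ten days post-treatment in greenhouse against untreated controls; dash means no result. Treatments: preemergence soil spray and postemergence spray to runoff on one- to two-leaf plants 2 to 10 cm tall, surfactant-containing formulation.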

rice [4] = assay: Test B flooded paddy test; type: in vivo, Oryza sativa; details: 1000 g ai/ha, visual rating, scale 0 to 100 (0 no effect, 100 complete control), 13 to 15 days
Outline: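 Read-out: visual comparison with controls, scored 0 to 100, where 100 means complete control and 0 no effect. Formulated chemicals were applied postemergence to plants 2–18 cm tall (1- to 4-leaf), or to flooded-paddy plants at the 2-leaf stage, then held 13 to 15 days under glass.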

cocklebur = assay: Test B pre-/postemergence herbicide test; type: in vivo, Xanthium strumarium
Outline: (§4)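 Flooded paddy rice and barnyardgrass were treated at the 2-leaf stage; upland plantings received compound either on sown seed or on 1- to 4-leaf seedlings. All were kept 13–15 days in a greenhouse and scored visually, 0–100, relative to untreated plants.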

morningglory [5] = assay: Test A pre-/postemergence herbicide test; type: in vivo, Ipomoea spp.; details: for Plant response rating, Morningglory: Postemergence; for Morningglory plant response rating: Preemergence
Outline: as §3

[6] = test system: small flower umbrella sedge; assay: Test B flooded paddy test; type: in vivo, Cyperus difformis; details: 1000 g ai/ha, visual rating, scale 0 to 100 (0 no effect, 100 complete control), 13 to 15 days
Outline: (§5)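 After treating 2-leaf paddy plants or 2–18 cm postemergence plants (1 to 4 leaves) with formulated chemical, researchers kept them in a greenhouse for 13–15 days. Effects were judged visually versus controls: 0 indicates none, 100 total control.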

large crabgrass [7] = assay: Test B pre-/postemergence herbicide test; type: in vivo, Digitaria sanguinalis
Outline: as §1

ducksalad = assay: Test B flooded paddy test; type: in vivo, Heteranthera limosa; details: 1000 g ai/ha, visual rating, scale 0 to 100 (0 no effect, 100 complete control), 13 to 15 days
Outline: as §5

corn = assay: Test B pre-/postemergence herbicide test; type: in vivo, Zea mays
Outline: as §1

blackgrass = assay: Test B postemergence herbicide test; type: in vivo, Alopecurus myosuroides; details: scale 0 (no effect) to 100 (complete control)
Outline: as §5

barnyardgrass [8] = assay: Test B pre-/postemergence herbicide test; type: in vivo, Echinochloa crus-galli
Outline: as §4

pigweed = assay: Test B pre-/postemergence herbicide test; type: in vivo, Amaranthus retroflexus
Outline: as §1

redroot pigweed = assay: Test A pre-/postemergence herbicide test; type: in vivo, Amaranthus retroflexus; details: for Plant response rating, Pigweed: Postemergence; for Pigweed plant response rating: Preemergence
Outline: as §3

lambsquarters = assay: Test B pre-/postemergence herbicide test; type: in vivo, Chenopodium album
Outline: as §1

giant foxtail [9] = assay: Test A pre-/postemergence herbicide test; type: in vivo, Setaria faberi; details: for Plant response rating, Foxtail, Giant: Postemergence; for Foxtail, Giant plant response rating: Preemergence
Outline: as §3

morningglory [10] = assay: Test B pre-/postemergence herbicide test; type: in vivo, Ipomoea coccinea
Outline: as §4

barnyardgrass [11] = assay: Test A pre-/postemergence herbicide test; type: in vivo, Echinochloa crus-galli; details: for Plant response rating, Barnyardgrass: Postemergence; for Barnyardgrass plant response rating: Preemergence
Outline: as §3

wild oat = assay: Test B postemergence herbicide test; type: in vivo, Avena fatua; details: scale 0 (no effect) to 100 (complete control)
Outline: as §2

Surinam grass = assay: Test B pre-/postemergence herbicide test; type: in vivo, Urochloa decumbens
Outline: as §1

barnyardgrass [12] = assay: Test B flooded paddy test; type: in vivo, Echinochloa crus-galli; details: 1000 g ai/ha, visual rating, scale 0 to 100 (0 no effect, 100 complete control), 13 to 15 days
Outline: as §5

giant foxtail [13] = assay: Test B pre-/postemergence herbicide test; type: in vivo, Setaria faberi
Outline: as §1

velvetleaf [14] = assay: Test A pre-/postemergence herbicide test; type: in vivo, Abutilon theophrasti; details: for Velvetleaf plant response rating: Preemergence, visual rating, 0 to 100 scale (0 no effect, 100 complete control)
Outline: as §3

[15] = Postemergence, 500 g ai/ha, visual rating after 13 to 15 days, scale 0 (no effect) to 100 (complete control)
[16] = postemergence, 125 g ai/ha, visual rating, scale 0 (no effect) to 100 (complete control)
[17] = preemergence, 125 g ai/ha, 0 to 100 scale, 0 is no effect, 100 is complete control
[18] = Postemergence, 500 g ai/ha, visual rating after 13 to 15 days
[19] = postemergence, 125 g ai/ha, visual rating
[20] = 500 g ai/ha, 0 to 100 scale, 0 no effect, 100 complete control
[21] = 2000 g ai/ha, 0 to 100 scale, 0 no effect, 100 complete control
[22] = 500 g ai/ha, visual rating, 0 to 100 scale (0 no effect, 100 complete control)
[23] = Preemergence, 500 g ai/ha, scale 0 to 100

CCn1nc(C(C)(C)C)cc1C(=O)Nc1cccc(C(=O)OCC(F)(F)F)c1 [Compound 83]
Plant response rating, Velvetleaf (velvetleaf [1]; [15]): 70
Velvetleaf plant response rating (velvetleaf [1]; [16]): 50
Plant response rating, Velvetleaf (velvetleaf [1]; [17]): 0
Plant response rating, Rice (rice [2]): 0
Plant response rating, Wheat (wheat; [18]): 30
Wheat plant response rating (wheat; [19]): 20
Plant response rating, Crabgrass, Large (large crabgrass [3]; [20]): 30
Plant response rating, Crabgrass, Large (large crabgrass [3]; [21]): 25
Crabgrass, Large plant response rating (large crabgrass [3]; [22]): 0
Crabgrass, Large plant response rating (large crabgrass [3]; [21]): 0
Rice plant response rating (rice [4]): 10
Plant response rating, Cocklebur (cocklebur; [15]): 20
Cocklebur plant response rating (cocklebur; [23]): 0
Cocklebur plant response rating (cocklebur; [16]): 0
Plant response rating, Morningglory (morningglory [5]; [20]): 10
Plant response rating, Morningglory (morningglory [5]; [21]): 10
Morningglory plant response rating (morningglory [5]; [22]): 30
Morningglory plant response rating (morningglory [5]; [21]): 10
Sedge, Umbrella plant response rating [6]: 50
Plant response rating, Crabgrass, Large (large crabgrass [7]; [15]): 30
Crabgrass, Large plant response rating (large crabgrass [7]; [23]): 0
Crabgrass, Large plant response rating (large crabgrass [7]; [16]): 30
Plant response rating, Crabgrass, Large (large crabgrass [7]; [17]): 0
Ducksalad plant response rating (ducksalad): 30
Plant response rating, Corn (corn; [15]): 30
Corn plant response rating (corn; [23]): 0
Corn plant response rating (corn; [16]): 10
Plant response rating, Corn (corn; [17]): 0
Plant response rating, Blackgrass (blackgrass; [18]): 0
Blackgrass plant response rating (blackgrass; [19]): 0
Plant response rating, Barnyardgrass (barnyardgrass [8]; [15]): 50
Barnyardgrass plant response rating (barnyardgrass [8]; [23]): 0
Barnyardgrass plant response rating (barnyardgrass [8]; [16]): 10
Plant response rating, Barnyardgrass (barnyardgrass [8]; [17]): 0
Plant response rating, Pigweed (pigweed; [15]): 100
Pigweed plant response rating (pigweed; [16]): 70
Plant response rating, Pigweed (pigweed; [17]): 0
Plant response rating, Pigweed (redroot pigweed; [20]): 45
Plant response rating, Pigweed (redroot pigweed; [21]): 55
Pigweed plant response rating (redroot pigweed; [22]): 0
Pigweed plant response rating (redroot pigweed; [21]): 0
Plant response rating, Lambsquarters (lambsquarters; [15]): 60
Lambsquarters plant response rating (lambsquarters; [16]): 0
Plant response rating, Lambsquarters (lambsquarters; [17]): 0
Plant response rating, Foxtail, Giant (giant foxtail [9]; [20]): 20
Plant response rating, Foxtail, Giant (giant foxtail [9]; [21]): 20
Foxtail, Giant plant response rating (giant foxtail [9]; [22]): 0
Foxtail, Giant plant response rating (giant foxtail [9]; [21]): 0
Plant response rating, Morningglory (morningglory [10]; [15]): 30
Morningglory plant response rating (morningglory [10]; [16]): 0
Plant response rating, Morningglory (morningglory [10]; [17]): 0
Plant response rating, Barnyardgrass (barnyardgrass [11]; [20]): 5
Plant response rating, Barnyardgrass (barnyardgrass [11]; [21]): 20
Barnyardgrass plant response rating (barnyardgrass [11]; [22]): 0
Barnyardgrass plant response rating (barnyardgrass [11]; [21]): 0
Plant response rating, Oat, Wild (wild oat; [18]): 20
Oat, Wild plant response rating (wild oat; [19]): 10
Plant response rating, Surinam Grass (Surinam grass; [15]): 40
Surinam Grass plant response rating (Surinam grass; [16]): 20
Plant response rating, Surinam Grass (Surinam grass; [17]): 0
Barnyardgrass plant response rating (barnyardgrass [12]): 10
Plant response rating, Foxtail, Giant (giant foxtail [13]; [15]): 10
Foxtail, Giant plant response rating (giant foxtail [13]; [23]): 0
Foxtail, Giant plant response rating (giant foxtail [13]; [16]): 0
Plant response rating, Foxtail, Giant (giant foxtail [13]; [17]): 0
Plant response rating, Velvetleaf (velvetleaf [14]; Postemergence, 2000 g ai/ha, 0 to 100 scale, 0 no effect, 100 complete control): 20
Velvetleaf plant response rating (velvetleaf [14]; 500 g ai/ha): 0
Velvetleaf plant response rating (velvetleaf [14]; 2000 g ai/ha): 0

— patent US20060069132A1, “Azolecarboxamide herbicides” (priority 2004, published 2006)
